Results: PubChem BioAssay AID434951 (Broad Institute, 2010)
Calls of active or inactive are those of the source.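 The calls were made as follows: active = a fitted half-maximal concentration EC50 for the rise in nuclear signal no higher than ten times the top dose tested; inconclusive = flat fit with activity between 30% and 70%, or unusable fit; inactive = EC50 beyond ten times the top dose.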

Biological target: Hypoxia-inducible factor 1-alpha (Homo sapiens) (UniProt Q16665)
Assay: HIF pathway activation, GFP-HIF1alpha translocation – imaging, fluorescence, U2OS GFP-HIF1alpha, confirmation (AID 434951)
Details: U2OS GFP-HIF1alpha nuclear intensity, high-content imaging

Hypoxia-inducible factor 1-alpha (Homo sapiens), sequence (Q16665 whole entry, looked up): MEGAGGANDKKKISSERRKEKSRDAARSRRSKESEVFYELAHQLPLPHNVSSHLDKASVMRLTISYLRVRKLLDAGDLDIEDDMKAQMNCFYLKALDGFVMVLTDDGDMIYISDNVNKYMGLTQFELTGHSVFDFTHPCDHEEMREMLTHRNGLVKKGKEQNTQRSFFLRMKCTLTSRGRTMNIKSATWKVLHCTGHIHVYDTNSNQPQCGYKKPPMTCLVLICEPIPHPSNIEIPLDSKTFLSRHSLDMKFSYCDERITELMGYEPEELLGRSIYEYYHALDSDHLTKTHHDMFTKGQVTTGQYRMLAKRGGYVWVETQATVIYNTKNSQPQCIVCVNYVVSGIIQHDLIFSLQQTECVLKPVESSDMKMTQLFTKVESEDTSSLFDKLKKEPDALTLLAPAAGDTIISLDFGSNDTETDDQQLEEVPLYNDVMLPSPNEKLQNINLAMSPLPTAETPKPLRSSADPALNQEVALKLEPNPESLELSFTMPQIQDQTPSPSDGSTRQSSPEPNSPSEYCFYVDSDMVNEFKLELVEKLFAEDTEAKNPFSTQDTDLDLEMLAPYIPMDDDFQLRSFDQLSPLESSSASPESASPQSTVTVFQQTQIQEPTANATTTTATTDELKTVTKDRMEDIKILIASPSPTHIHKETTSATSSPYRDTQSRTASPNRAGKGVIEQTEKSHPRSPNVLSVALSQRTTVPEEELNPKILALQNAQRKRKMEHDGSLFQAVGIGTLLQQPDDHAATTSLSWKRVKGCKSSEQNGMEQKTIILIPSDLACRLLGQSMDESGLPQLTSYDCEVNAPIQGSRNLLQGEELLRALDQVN

Row | Compound | EC50
1 | Oc1c(C(Nc2ccccn2)c2ccccn2)ccc2cccnc12 (stereo unspecified) | 3.98 µM
2 | Cc1nc(NCCc2ccccc2)c(C#N)c(C)c1[N+](=O)[O-] | > 35 µM (inactive)
3 | COc1cc2c(cc1OC)C(C)N(S(=O)(=O)c1ccc(Cl)nc1)CC2 (stereo unspecified) | > 35 µM (inactive)
4 | Cc1ccc(Cl)cc1N1CCN(CC(O)COCc2ccco2)CC1 (stereo unspecified) | > 35 µM (inactive)
5 | COc1cc(C(=O)Oc2ccccc2/C=N/NC(=O)c2ccc(C)cc2)cc(OC)c1OC | 13.8 µM
6 | O=C(NC(=S)Nc1ccccn1)c1cc(-c2ccccc2)nc2ccccc12 | > 35 µM (inactive)
7 | Cn1nnnc1N=N/C(=N/Nc1ccccc1)c1ccccc1 | 7.53 µM
8 | CCCCCCN1C=CC=C/C1=C/C=C(C#N)C#N | > 35 µM (inactive)
9 | Cc1onc(-c2ccccc2)c1NC(=O)N(Cc1ccccc1)C(C)C | > 35 µM (inactive)
10 | CN(c1cccc(Cl)c1)S(=O)(=O)c1cccc(C(=O)Nc2nc3ccccc3[nH]2)c1 | > 35 µM (inactive)
11 | O=C1C=C(c2ccccc2)CC(c2cccs2)C1n1cnc([N+](=O)[O-])c1 (stereo unspecified) | > 35 µM (inactive)
12 | CCOc1nc(Nc2ccc(OC)cc2)nc(OCC)n1 | > 35 µM (inactive)
13 | Brc1ccc(N/N=C(/N=Nc2nn[nH]n2)c2ccccc2)cc1 | 5.73 µM
14 | O=C(O)c1cccc(N2CCCC2=O)c1 | > 35 µM (inactive)
15 | N#CCC(=O)N/N=C/c1ccc(SCC(=O)Nc2ccccc2)o1 | > 35 µM (inactive)
16 | COc1ccc(N(CC(=O)Nc2cc(OC)ccc2OC)S(=O)(=O)c2c(C)noc2C)cc1 | > 35 µM (inactive)
17 | CCOC(=O)/C(C#N)=C/C=C1\C=Cc2ccccc2N1CC | > 35 µM (inactive)
18 | COc1ccc(N2C(=O)[C@@H]3C(c4cccnc4)=NO[C@@H]3C2=O)cc1 | > 35 µM (inactive)
19 | COc1ccc(NC(=S)c2ccc(N(C)C)cc2)cc1 | > 35 µM (inactive)
20 | O=c1[nH]c(C2CCN(S(=O)(=O)c3ccc(C(F)(F)F)cc3)CC2)nc2c1nnn2Cc1ccc(F)cc1 | > 35 µM (inactive)
21 | CCOP(=O)(C#CC(C)(C)C)C1(O)CCCCC1 (stereo unspecified) | > 35 µM (inactive)
22 | CCN(CC)CCn1c2ccccc2c2cnc(N)c(C#N)c21 | > 35 µM (inactive)

Row | Compound | EC50
23 | COC(=O)CCCC1=CC2=CC(=O)C(C)(OC(=O)c3cccs3)C(=O)C2=CN1Cc1ccc2c(c1)OCO2 (stereo unspecified) | > 35 µM (inactive)
24 | Cc1ccc(-c2cc(C(F)(F)F)n3nc(C(=O)Nc4c(C)n(C)n(-c5ccccc5)c4=O)cc3n2)cc1 | > 35 µM (inactive)
25 | C=CCSc1cc(C)nc2c(-c3ccccc3)cnn12 | > 35 µM (inactive)
26 | COc1cc2ccccc2cc1C(=O)NNC(=O)c1ccccc1O | > 35 µM (inactive)
27 | O=C(N/N=C\c1cc(Cl)ccc1O)c1ccc(S(=O)(=O)N2CCCCC2)cc1 | 5.75 µM
28 | O=C(c1cccnc1)c1cc2ccccc2[nH]1 | > 35 µM (inactive)
29 | Cc1cc(SCC(=O)N/N=C/c2ccc(O)cc2O)c(C)cc1Br | 32.3 µM
30 | Cc1ccc2c(c1)C1NC(=S)NC(C)(O2)C1C(=O)Nc1ccc(Cl)cc1 (stereo unspecified) | > 35 µM (inactive)
31 | COc1cc2c(cc1OC)C(c1ccccc1)N(S(C)(=O)=O)CC2 (stereo unspecified) | > 35 µM (inactive)
32 | CCC(C)(C)c1nnc(NC(=O)C2CCN(C(=O)c3ccco3)CC2)s1 | > 35 µM (inactive)
33 | Cc1ccccc1CN1C(=O)CSc2ccc(C(=O)N3CCOCC3)cc21 | > 35 µM (inactive)
34 | Cc1cccc(C(=O)OC(C)CN2CCCC2)c1 (stereo unspecified) | > 35 µM (inactive)
35 | CCOC(=O)/C(=N\Nc1cccc(C(F)(F)F)c1)N1CCOCC1 | > 35 µM (inactive)
36 | Cc1cc(=O)oc2cc(OCC(=O)N3CCN(c4ccc(F)cc4)CC3)ccc12 | > 35 µM (inactive)
37 | Cc1ccc(C)c(S(=O)(=O)N2CCN(Cc3ccc(O)c4ncccc34)CC2)c1 | 6.84 µM
38 | CNNC(=O)C(C)NC(=O)c1ccc(Br)cc1 (stereo unspecified) | > 35 µM (inactive)
39 | Cc1ccc(-c2nc(CS(=O)(=O)CC(=O)NC3CCC(C)CC3)c(C)o2)cc1 (stereo unspecified) | > 35 µM (inactive)
40 | O=C(N/N=C/c1cc(Br)cc(Br)c1O)c1ccncc1 | > 35 µM (inactive)
41 | O=C(NCc1ccccc1)C(=O)c1cn(CC(=O)N2CCOCC2)c2ccccc12 | > 35 µM (inactive)
42 | Cc1ccccc1OCC(=O)Nc1ccc(N2CCN(C)CC2)c(Cl)c1 | > 35 µM (inactive)
43 | N#Cc1ccccc1OCCCN1CCC(Cc2ccccc2)CC1 | > 35 µM (inactive)
44 | CCCN(CCC)C(C)C(=O)NCC1(c2ccccc2)CCCC1 (stereo unspecified) | > 35 µM (inactive)

Row | Compound | EC50
45 | Cc1snc(SCC(=O)N/N=C(\N)COc2cccc(C(F)(F)F)c2)c1C#N | 22.5 µM
46 | S=C(N/N=C/c1cccc2ccccc12)Nc1cccc(Cl)c1 | 31.9 µM
47 | Cc1ccc2nc(SCC(=O)N3CCCCCC3)nc(=O)n2c1 | > 35 µM (inactive)
48 | c1ccc(CSc2nnc(-c3ccco3)o2)cc1 | > 35 µM (inactive)
49 | COc1ccc(-c2nnc(-c3cc4c(ccc5ccccc54)oc3=O)o2)cc1 | > 35 µM (inactive)
50 | COc1cc(C(=O)Oc2ccccc2/C=N/NC(=O)c2ccc(Cl)cc2)cc(OC)c1OC | 35.8 µM
51 | COc1ccccc1N=Nc1ccc(O)c2ncccc12 | 7.58 µM
52 | COc1cc(C(=O)N/N=C(\c2ccccc2)c2ccccn2)cc(OC)c1OC | 11.3 µM
53 | Oc1c(C(Nc2nc3ccccc3s2)c2ccco2)ccc2cccnc12 (stereo unspecified) | 7.1 µM
54 | COc1ccc(CCNC(=O)COC(=O)CCC(=O)c2ccc(F)cc2)cc1OC | > 35 µM (inactive)
55 | COc1ccc(/C=N/NC(=O)c2nc(-c3ccccc3)n(-c3ccccc3)n2)c(O)c1 | 25.4 µM
56 | CCCCc1c(C)nc(N)[nH]c1=O | > 35 µM (inactive)
57 | Cc1ccc(C2(C)NC(=O)N(CC(=O)NC(=O)NC(C)(C)C)C2=O)cc1 (stereo unspecified) | > 35 µM (inactive)
58 | COc1ccc(CCNc2nncc(=O)[nH]2)cc1OC | > 35 µM (inactive)
59 | COCCNC(=O)c1sc2nc(-c3ccccc3)cn2c1C | > 35 µM (inactive)
60 | Cc1ccc(/C=N/NC(=O)CN2CCN(Cc3ccccc3Cl)CC2)o1 | > 35 µM (inactive)
61 | COC(=O)CNC(=O)CSc1nnc2cc(C)c3ccccc3n12 | > 35 µM (inactive)
62 | O=C(NCCc1ccccc1)c1cc(-c2ccco2)on1 | 10.8 µM
63 | O=C(O)c1ccc(N2C(=O)CSC2=S)cc1 | > 35 µM (inactive)
64 | C/C(=N\NC(=O)c1nnn(-c2nonc2N)c1-c1ccccc1)c1ccccc1O | 11.1 µM
65 | Cc1occc1C(=O)NC1CCCCCC1 | > 35 µM (inactive)
66 | O=S(=O)(NCc1nnc2c(C(F)(F)F)cc(Cl)cn12)c1ccccc1 | > 35 µM (inactive)

Row | Compound | EC50
67 | O=C(CCc1nnc(-c2ccccc2)o1)c1ccc(Cl)cc1 | > 35 µM (inactive)
68 | COc1ccccc1N(CC(=O)NC1CCCCC1)S(C)(=O)=O | > 35 µM (inactive)
69 | Cc1cc(Oc2ccccc2)nc(N2CCOCC2)n1 | > 35 µM (inactive)
70 | COc1ccc(/C=N/NC(=O)c2ccoc2C)cc1O | > 35 µM (inactive)
71 | O=c1c2ccccc2nc2c3ccccc3c(NCCN3CCOCC3)nn12 | > 35 µM (inactive)
72 | Cc1ccc(S(=O)(=O)N(C)CC(=O)NCCCn2ccnc2)cc1 | > 35 µM (inactive)
73 | CC(C)C(=O)N1CCN(c2nc3ccc(Cl)cc3s2)CC1 | > 35 µM (inactive)
74 | CCc1ccc(NC(=O)COC(=O)c2cccs2)cc1 | > 35 µM (inactive)
75 | CC(=O)Nc1ccc(S(=O)(=O)Nc2ccc(S(=O)(=O)Nc3nccs3)cc2)cc1 | > 35 µM (inactive)
76 | Cc1cc(NC(=O)CCN2C(=O)/C(=C\c3ccccc3)SC2=S)no1 | 34.4 µM
77 | O=C(NCCCN1CCOCC1)c1cc(-c2ccccc2)on1 | 9.39 µM
78 | COc1ccc2nc(NC(=O)Nc3ccccc3OC)sc2c1 | > 35 µM (inactive)
79 | Cc1ncc(CO)c(/C=N/Nc2ccc(C(F)(F)F)cn2)c1O | 17.8 µM
80 | O=C(COC(=O)c1ccccc1Nc1ccccc1)NCc1ccccc1Cl | > 35 µM (inactive)
81 | COc1ccc(-n2c(C)csc2=S)cc1 | > 35 µM (inactive)
82 | Cc1ccc(/C=N/NC(=O)c2ccc(Br)o2)s1 | > 35 µM (inactive)
83 | COc1ccc(/C=N/NC(=O)c2ccccc2O)cc1CSc1ccccn1 | > 35 µM (inactive)
84 | FC(F)(F)c1ccc(CSc2ccccn2)cc1 | > 35 µM (inactive)
85 | Cc1ccc(NC2CCCN(C(=O)C3CCCCC3)C2)cc1C (stereo unspecified) | > 35 µM (inactive)
86 | Cc1nc2ccccc2n2c(-c3ccccc3)c3c(=O)n(C)c(=O)n(C)c3c12 | > 35 µM (inactive)
87 | COC(=O)c1ccc(CSc2nc3c(c(=O)n2-c2ccc(F)cc2)SCC3)o1 | > 35 µM (inactive)
88 | Cc1noc(C(=O)Nc2sc3c(c2C#N)CCC3)c1Cl | > 35 µM (inactive)

Row | Compound | EC50
89 | CCN(CC)c1ccc(/C=N/NC(=O)c2cnccn2)c(O)c1 | 9.54 µM
90 | CCNc1nc(Cl)nc(NNC(=O)C(C)Oc2ccccc2)n1 (stereo unspecified) | > 35 µM (inactive)
91 | CC(C)C(=O)NC(c1ccco1)c1ccc2cccnc2c1O (stereo unspecified) | 4.47 µM
92 | O=C(NCC1CCCO1)c1cc(-c2ccccc2)on1 (stereo unspecified) | 6.78 µM
93 | O=C(N/N=C/c1c(O)ccc2ccccc12)c1cccnc1 | 0.678 µM
94 | C[C@@H](C(=O)Nc1ccc2c(c1)OCCO2)n1c(=O)[nH]c2ccccc2c1=O | > 35 µM (inactive)
95 | O=C(COc1cccc2ccccc12)Nc1ccc(Cl)cc1C(=O)O | > 35 µM (inactive)
96 | OCCCNc1c2ccccc2nc2ccccc12 | > 35 µM (inactive)
97 | Cc1ccc(C(=O)Nc2ccc3c(c2)nc(CCNC(=O)c2ccco2)n3C)cc1 | > 35 µM (inactive)
98 | CCC(=O)n1nc(NCc2ccc(OC)c(OC)c2)nc1NCc1ccc(OC)c(OC)c1 | > 35 µM (inactive)
99 | Cc1ccc(C)c(-n2nnnc2Sc2nnnn2-c2ccccc2)c1 | > 35 µM (inactive)
100 | O=C(N/N=C/c1ccccn1)c1ccc(Cl)cc1 | 12.8 µM
101 | CCN(CC)S(=O)(=O)c1ccc(N/N=C/c2ccc(O)cc2O)nc1 | 0.715 µM
102 | Cc1ccc(OCCNC(=O)CCc2nc3sc4c(c3c(=O)[nH]2)CCCC4)cc1 | > 35 µM (inactive)
103 | COc1ccc(NC(=S)NCc2cccnc2)cc1 | > 35 µM (inactive)
104 | Oc1ccc(-c2cn3ccccc3n2)cc1O | > 35 µM (inactive)
105 | Cc1ccc(NC(=O)N2CCC(NC(=O)c3cccc(C)c3)CC2)cc1 | > 35 µM (inactive)
106 | COc1ccc(N=C2C(=O)N3CCCc4cccc2c43)cc1 | > 35 µM (inactive)
